Data set [1] has as its target T1, Tyrosinase (Agaricus bisporus, UniProt O42713).
T1 sequence (O42713 whole entry): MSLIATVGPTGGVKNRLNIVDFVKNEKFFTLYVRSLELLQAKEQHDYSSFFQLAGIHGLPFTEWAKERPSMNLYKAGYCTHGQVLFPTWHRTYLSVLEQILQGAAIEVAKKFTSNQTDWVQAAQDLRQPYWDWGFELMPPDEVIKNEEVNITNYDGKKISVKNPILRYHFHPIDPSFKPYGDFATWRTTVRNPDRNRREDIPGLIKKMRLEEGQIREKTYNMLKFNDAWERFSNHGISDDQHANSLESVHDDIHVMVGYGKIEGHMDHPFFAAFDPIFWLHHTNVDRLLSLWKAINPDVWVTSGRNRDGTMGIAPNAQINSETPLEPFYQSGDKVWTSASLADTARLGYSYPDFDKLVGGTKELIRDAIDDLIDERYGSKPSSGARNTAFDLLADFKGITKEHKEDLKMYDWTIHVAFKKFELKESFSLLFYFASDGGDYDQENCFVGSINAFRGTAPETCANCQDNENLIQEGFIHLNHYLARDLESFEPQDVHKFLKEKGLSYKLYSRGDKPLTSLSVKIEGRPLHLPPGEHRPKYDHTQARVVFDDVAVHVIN
Nature of the data set: Inhibition of diphenolase activity of mushroom tyrosinase.

Substrate in data set [2]: O=C(CCc1ccc(O)cc1)c1c(O)cc(O)cc1O[C@@H]1O[C@H](CO)[C@@H](O)[C@H](O)[C@H]1O
Description: Activity of mushroom tyrosinase diphenolase
As to conditions: Agaricus bisporus.

One may read the IC50 as the concentration needed to halve the response being measured. A higher IC50 goes with a need for much substance. In general, Ki refers to the dissociation constant of the complex between target and ligand, obtained from inhibition or displacement. A high value points to weaker binding. In general, Km refers to the concentration of substrate that gives half-maximal velocity.

Consider `O=C(CCc1ccc(O)cc1)c1c(O)cc(O)cc1O[C@@H]1O[C@H](CO)[C@@H](O)[C@H](O)[C@H]1O`, for which, in data set [1], the IC50 is 110 µM and the Ki came out at 64.3 µM.

B1: Tyrosinase (Agaricus bisporus), O42713 (protein)
chain: T1 sequence (O42713 whole entry)
As to B1, the Michaelis constant (Km) in data set [2] stood at 627 µM.

The record behind these values is ChEMBL document CHEMBL1139063, “Inhibitory effects of phloridzin dihydrate on the activity of mushroom (Agaricus bisporus) tyrosinase” (Bioorg Med Chem, 2007).
